Test results: ChEMBL document CHEMBL2034954, “Synthesis and antimycobacterial activity of novel 1,3-dimethylisocyanurate derivatives” (Eur J Med Chem, 2012)
Activity calls are given as the source filed them. The calls are words filed in the database; no cut-off is given here.

Tests used:
[1] = system: Mycobacterium tuberculosis; assay: Antitubercular activity against multidrug-resistant Mycobacterium tuberculosis clinical isolate assessed as number of colonies at 1 ug/mL by radiometric growth assay; format: functional
[2] = system: Mycobacterium tuberculosis; assay: Antitubercular activity against multidrug-resistant Mycobacterium tuberculosis clinical isolate assessed as number of colonies at 10 ug/mL by radiometric growth assay; format: functional
[3] = system: Mycobacterium tuberculosis; assay: Antitubercular activity against multidrug-resistant Mycobacterium tuberculosis clinical isolate at 10 ug/mL by radiometric growth assay; format: functional, organism-based
[4] = system: Mycobacterium tuberculosis; assay: Antitubercular activity against multidrug-resistant Mycobacterium tuberculosis clinical isolate at 1 ug/mL by radiometric growth assay; format: functional, organism-based
[5] = system: Mycobacterium tuberculosis; assay: Antitubercular activity against multidrug-resistant Mycobacterium tuberculosis clinical isolate at 80 ug/mL by radiometric growth assay; format: functional, organism-based
[6] = system: Mycobacterium tuberculosis; assay: Antitubercular activity against multidrug-resistant Mycobacterium tuberculosis clinical isolate at 40 ug/mL by radiometric growth assay; format: functional, organism-based

Cn1c(=O)n(C)c(=O)n(CCCCC[S+]([O-])CC(=O)NN)c1=O (configuration not stated)
CFU [1]: 15
CFU [2]: 10

CC1COc2c(N3CCN(C)CC3)c(F)cc3c(=O)c(C(=O)O)cn1c23 (configuration not stated)
Activity [3]: inactive

NNC(=O)c1ccncc1 [ISONIAZID]
Activity [3]: inactive
Activity [4]: inactive

CO[C@H]1/C=C/O[C@@]2(C)Oc3c(C)c(O)c4c(O)c(c(/C=N/N5CCN(C)CC5)c(O)c4c3C2=O)NC(=O)/C(C)=C\C=C\[C@H](C)[C@H](O)[C@@H](C)[C@@H](O)[C@@H](C)[C@H](OC(C)=O)[C@@H]1C
Activity [5]: inactive
Activity [6]: inactive
